Assay results as given in paper PMC11325506 (ACS Omega, 2024).

Tests used:
Type in all cases: cell-based
[1] = system: Mycobacterium tuberculosis, strain H37Ra; assay: Antimycobacterial activity against M. tuberculosis H37Ra (luminescence, dose-response); conditions: for IC50: Mycobacterium tuberculosis, 168 h, H37Ra lux, luminescence at day 7, top concentration 64 μM; for SI (selectivity index): calculated with the formula CC50/IC50 (MRC-5 cytotoxicity / H37Ra); for activity against Mtb H37Ra (in words): SAR discussion
[2] = In vitro cytotoxicity, resazurin assay; conditions: human, MRC-5 fibroblast cells (ATCC CCL-171), 3 days exposure
Description: In vitro cytotoxicity was evaluated on the MRC-5 Homo sapiens […] fibroblast cell line (ATCC CCL-171). The MRC-5 cells were cultured in 75 cm^2 sterile Dulbecco’s modified Eagle’s medium (DMEM) supplemented with 10% heat-inactivated fetal calf serum in a 5% CO2 atmosphere at 37 °C. When a semiconfluent layer of cells was formed, the cells were trypsinized, washed with sterile PBS, seeded into a transparent, flat-bottomed 96-well plate at a density of 4 × 10^4 cells per well and left for recovery at 37 °C, 5% CO2 for at least 24 h. For each compound, a 2-fold serial dilution was made in complete DMEM with final concentrations ranging from 128 μM to 0.5 μM. Subsequently, the MRC-5 cells were exposed to the compounds by adding 100 μL of the serial dilutions to the wells. Test plates were incubated for 3 days in an atmosphere of 5% CO2 at 37 °C. For the resazurin assay, the cells were washed 2 times with 200 μL PBS, and 100 μL resazurin working solution was added per well. Subsequently, the plates were incubated at 37 °C, 5% CO2 for 3 h. To monitor the viable cell number after compound exposure, each well was analyzed using a microplate fluorometer equipped with a 560 nm excitation/590 nm emission filter set.

Mycobacterium abscessus = assay: microbe, parasite or virus in culture; conditions: Mycobacteroides abscessus, 72 h, read-out: IC50 against M. abscessus

Row | Structure (SMILES) | IC50 [1] [µM] | SI (selectivity index) [1] | further results
1 | CCOc1c(C)cc(-c2c(NCc3ccccn3)c(=O)c2=O)cc1C [Compound 6r, 3-(4-Ethoxy-3,5-dimethylphenyl)-4-((pyridin-2-ylmethyl)amino)cyclobut-3-ene-1,2-dione] | 13.5 | > 4.7 | –
2 | COCCOc1ccc(-c2c(NCc3ccccn3)c(=O)c2=O)cc1 [Compound 6g, 3-(4-(2-Methoxyethoxy)phenyl)-4-((pyridin-2-ylmethyl)amino)cyclobut-3-ene-1,2-dione] | 8.69 | > 7.4 | –
3 | COc1ccc(-c2c(NCc3ccccn3)c(=O)c2=O)c(F)c1F [Compound 6o, 3-(2,3-Difluoro-4-methoxyphenyl)-4-((pyridin-2-ylmethyl)amino)cyclobut-3-ene-1,2-dione] | > 64 | – | –
4 | Cc1ccc(-c2c(NCc3ccccn3)c(=O)c2=O)cc1 [Compound 6a, 3-((Pyridin-2-ylmethyl)amino)-4-(p-tolyl)cyclobut-3-ene-1,2-dione] | 2.01 | > 31.8 | –
5 | O=c1c(NCc2ccccn2)c(-c2ccc3c(c2)OCCO3)c1=O [Compound 6v, 3-(2,3-Dihydrobenzo[b][1,4]dioxin-6-yl)-4-((pyridin-2-ylmethyl)amino)cyclobut-3-ene-1,2-dione] | 3.37 | > 19.0 | –
6 | CSc1ccc(-c2c(NCc3ccccn3)c(=O)c2=O)cc1 [Compound 6e, 3-(4-(Methylthio)phenyl)-4-((pyridin-2-ylmethyl)amino)cyclobut-3-ene-1,2-dione] | 4.56 | > 14.0 | –
7 | O=c1c(NCc2ccccn2)c(-c2ccsc2)c1=O [Compound 6y, 3-((Pyridin-2-ylmethyl)amino)-4-(thiophen-3-yl)cyclobut-3-ene-1,2-dione] | > 64 | – | –
8 | O=c1c(NCc2ccccn2)c(-c2ccc(O)cc2)c1=O [Compound 6c, 3-(4-Hydroxyphenyl)-4-((pyridin-2-ylmethyl)amino)cyclobut-3-ene-1,2-dione] | 21.9 | > 2.9 | –
9 | O=c1c(NCc2ccccn2)c(-c2ccc3c(c2)OCO3)c1=O [Compound 6u, 3-(Benzo[d][1,3]dioxol-5-yl)-4-((pyridin-2-ylmethyl)amino)cyclobut-3-ene-1,2-dione] | 19.9 | > 3.2 | –
10 | COc1nc2ccc(Br)cc2cc1[C@@H](c1ccccc1)[C@@](O)(CCN(C)C)c1cccc2ccccc12 [Bedaquiline, reference compound] | 0.01 | – | –
11 | O=c1c(NCc2ccccn2)c(-c2ccc(Br)cc2)c1=O [Compound 6b, 3-(4-Bromophenyl)-4-((pyridin-2-ylmethyl)amino)cyclobut-3-ene-1,2-dione] | 3.49 | > 18.3 | –
12 | CC/C(=C(\c1ccccc1)c1ccc(OCCN(C)C)cc1)c1ccccc1 [Tamoxifen] | – | – | IC50 at 3 days [2]: 12.3 µM
13 | O=c1c(NCc2ccccn2)c(-c2ccc(OCc3ccccc3)cc2)c1=O [Compound 6i, 3-(4-(Benzyloxy)phenyl)-4-((pyridin-2-ylmethyl)amino)cyclobut-3-ene-1,2-dione] | > 64 | – | –
14 | CCCCOc1ccc(-c2c(NCc3ccccn3)c(=O)c2=O)c(F)c1F [Compound 6q, 3-(4-Butoxy-2,3-difluorophenyl)-4-((pyridin-2-ylmethyl)amino)cyclobut-3-ene-1,2-dione] | > 64 | – | activity against Mtb H37Ra (in words) [1]: completely inactive
15 | O=c1c(NCc2ccccn2)c(-c2ccc(OCc3ccccc3)c(Cl)c2)c1=O [Compound 6k, 3-(4-(Benzyloxy)-3-chlorophenyl)-4-((pyridin-2-ylmethyl)amino)cyclobut-3-ene-1,2-dione] | > 64 | – | –
16 | O=c1c(NCc2ccccn2)c(-c2ccc(OC(F)(F)F)cc2)c1=O [Compound 6d, 3-((Pyridin-2-ylmethyl)amino)-4-(4-(trifluoromethoxy)phenyl)cyclobut-3-ene-1,2-dione] | 13.8 | > 4.6 | –
17 | O=c1c(NCc2ccccn2)c(-c2ccc(Cl)cc2C(F)(F)F)c1=O [Compound 6m, 3-(4-Chloro-2-(trifluoromethyl)phenyl)-4-((pyridin-2-ylmethyl)amino)cyclobut-3-ene-1,2-dione] | > 64 | – | –
18 | COc1ccc(-c2c(NCc3ccccn3)c(=O)c2=O)cc1Cl [Compound 6l, 3-(3-Chloro-4-methoxyphenyl)-4-((pyridin-2-ylmethyl)amino)cyclobut-3-ene-1,2-dione] | 1.51 | > 42.4 | –
19 | O=c1c(NCc2ccccn2)c(-c2ccc(F)c(F)c2)c1=O [Compound 6n, 3-(3,4-Difluorophenyl)-4-((pyridin-2-ylmethyl)amino)cyclobut-3-ene-1,2-dione] | 2.46 | > 26.0 | –
20 | COc1ccc(-c2c(NCc3ccccn3)c(=O)c2=O)c2ccccc12 [Compound 6t, 3-(4-Methoxynaphthalen-1-yl)-4-((pyridin-2-ylmethyl)amino)cyclobut-3-ene-1,2-dione] | > 64 | – | –
21 | O=c1c(NCc2ccccn2)c(-c2ccoc2)c1=O [Compound 6x, 3-(Furan-3-yl)-4-((pyridin-2-ylmethyl)amino)cyclobut-3-ene-1,2-dione] | 29.1 | > 2.2 | –
22 | CCOc1ccc2cc(-c3c(NCc4ccccn4)c(=O)c3=O)ccc2c1 [Compound 6w, 3-(6-Ethoxynaphthalen-2-yl)-4-((pyridin-2-ylmethyl)amino)cyclobut-3-ene-1,2-dione] | > 64 | – | activity against Mtb H37Ra (in words) [1]: completely inactive
23 | CCCOc1ccc(-c2c(NCc3ccccn3)c(=O)c2=O)c(F)c1F [Compound 6p, 3-(2,3-Difluoro-4-propoxyphenyl)-4-((pyridin-2-ylmethyl)amino)cyclobut-3-ene-1,2-dione] | > 64 | – | activity against Mtb H37Ra (in words) [1]: completely inactive
24 | O=c1c(NCc2ccccn2)c(-c2ccc(OCc3ccc(F)cc3)cc2)c1=O [Compound 6j, 3-(4-((4-Fluorobenzyl)oxy)phenyl)-4-((pyridin-2-ylmethyl)amino)cyclobut-3-ene-1,2-dione] | > 64 | – | –
25 | Cc1ccc(-c2c(NCc3ccccn3)c(=O)c2=O)s1 [Compound 6z, 3-(5-Methylthiophen-2-yl)-4-((pyridin-2-ylmethyl)amino)cyclobut-3-ene-1,2-dione] | 2.98 | > 21.5 | –
26 | O=c1c(NCc2ccccn2)c(-c2cccc3ccccc23)c1=O [Compound 6s, 3-(Naphthalen-1-yl)-4-((pyridin-2-ylmethyl)amino)cyclobut-3-ene-1,2-dione] | > 64 | – | –
27 | COc1c(N2C[C@@H]3CCCN[C@@H]3C2)c(F)cc2c(=O)c(C(=O)O)cn(C3CC3)c12 [Moxifloxacin] | – | – | IC50 (Mycobacterium abscessus): 1.74 µM
28 | O=c1c(NCc2ccccn2)c(-c2ccc(Oc3ccccc3)cc2)c1=O [Compound 6h, 3-(4-Phenoxyphenyl)-4-((pyridin-2-ylmethyl)amino)cyclobut-3-ene-1,2-dione] | > 64 | – | –
29 | CC(C)(C)Oc1ccc(-c2c(NCc3ccccn3)c(=O)c2=O)cc1 [Compound 6f, 3-(4-(tert-Butoxy)phenyl)-4-((pyridin-2-ylmethyl)amino)cyclobut-3-ene-1,2-dione] | 4.67 | > 13.7 | –
